From patent US9527857B2, “HSPC-sparing treatments for RB-positive abnormal cellular proliferation” (G1 Therapeutics, Inc., priority 2013, dated 2016)
“Also recorded” adds a separate entry of the source.

Legend:
[1] = system: ZR-75-1 (breast ductal carcinoma, Rb-positive); assay: Cellular proliferation assay (CellTiter-Glo), ZR-75-1; format: cell-based
Protocol: Cellular proliferation assays were conducted using the following cancer cell lines: MCF7 (breast adenocarcinoma—Rb-positive), ZR-75-1 (breast ductal carcinoma—Rb-positive), H69 (human small cell lung cancer—Rb-negative) cells, or A2058 (human metastatic melanoma cells—Rb-negative). These cells were seeded in Costar (Tewksbury, Mass.) […] 96 well tissue culture treated white walled/clear bottom plates. Cells were treated with the compounds of Table 1 as nine point dose response dilution series from 10 uM to 1 nM. Cells were exposed to compounds and then cell viability was determined after either four (H69) or six (MCF7, ZR75-1, A2058) days as indicated using the CellTiter-Glo® luminescent cell viability assay (CTG; Promega, Madison, Wis., United States of America) following the manufacturer's recommendations. Plates were read on BioTek (Winooski, Vt.) Syngergy2 multi-mode plate reader. The Relative Light Units (RLU) were plotted as a result of variable molar concentration and data was analyzed using Graphpad (LaJolla, Calif.) Prism 5 statistical software to determine the EC50 for each compound.

[2] = Metabolic stability in liver microsomes; format: in vitro ADME, human, dog, rat, monkey, and mouse; conditions: each of the species tested
Protocol: Human, mouse, and dog liver microsomes were purchased from Xenotech, and Sprague-Dawley rat liver microsomes were prepared by Absorption Systems. The reaction mixture comprising 0.5 mg/mL of liver microsomes, 100 mM of potassium phosphate, pH 7.4, 5 mM of magnesium chloride, and 1 uM of test compound was prepared. The test compound was added into the reaction mixture at a final concentration of 1 uM. An aliquot of the reaction mixture (without cofactor) was incubated in shaking water bath at 37 deg. C. for 3 minutes. The control compound, testosterone, was run simultaneously with the test compound in a separate reaction. The reaction was initiated by the addition of cofactor (NADPH), and the mixture was then incubated in a shaking water bath at 37 deg. C. Aliquots (100 μL) were withdrawn at 0, 10, 20, 30, and 60 minutes for the test compound and 0, 10, 30, and 60 minutes for testosterone. […] Test compound samples were analyzed using the Orbitrap high resolution mass spectrometer to quantify the disappearance of parent test compound and detect the appearance of metabolites. […] Half-lives were calculated using GraphPad software, fitting to a single-phase exponential decay equation.
When calculated half-life was longer than the duration of the experiment, the half-life was expressed as >the longest incubation time. The calculated half-life is also listed in parentheses. […]

[3] = system: Rb phosphorylation at Ser780 and Ser807/811 in tHS68 and WM2664; assay: Rb phosphorylation western blot, CDK4/6-dependent cell lines; format: cell-based; conditions: 300 nM; 4, 8, 16, 24 hours
Protocol: (§1) MAPK levels are shown as a control for protein levels. Following treatment, cells were harvested and analyzed for Rb-phosphorylation by western blot analysis.
(§2) The CDK4/6-cyclin D complex is essential for progression from G1 to the S-phase of the DNA cell cycle. This complex phosphorylates the retinoblastoma tumor suppressor protein (Rb). […] Samples were lysed and protein was assayed by western blot analysis. Rb phosphorylation was measured at two sites targeted by the CDK4/6-cyclin D complex, Ser780 and Ser807/811 using species specific antibodies.

[4] = system: WM2664 cells (CDK4/6-dependent, Rb-positive); assay: Cell cycle arrest (propidium iodide flow cytometry), WM2664; format: cell-based; conditions: 300 nM, 24 hours
Description: (§3) To test the ability of CDK4/6 inhibitors to induce a clean G1-arrest, a cell based screening method was used consisting of two CDK4/6-dependent cell lines (tHS68 and WM2664; Rb-positive) and one CDK4/6-independent (A2058; Rb-negative) cell line. […] At the conclusion of the experiment, cells were harvested, fixed, and stained with propidium iodide (a DNA intercalator), which fluoresces strongly red (emission maximum 637 nm) when excited by 488 nm light. Samples were run on Dako Cyan flow cytometer and >10,000 events were collected for each sample. Data were analyzed using FlowJo 2.2 software developed by TreeStar, Inc.

[5] = system: Rb phosphorylation at Ser780 and Ser807/811 in A2058; assay: Rb phosphorylation western blot, CDK4/6-independent cell line; format: cell-based; conditions: 300 nM; 4, 8, 16, 24 hours
Protocol: as §1, §2

[6] = system: A2058 cells (CDK4/6-independent, Rb-negative); assay: Cell cycle arrest (propidium iodide flow cytometry), A2058; format: cell-based; conditions: 300 nM, 24 hours
Description: as §3

[7] = Mouse pharmacokinetics (oral gavage / intravenous); format: in vivo, mice; conditions: plasma, 30 mg/kg, read-out: F (oral bioavailability)
Protocol: Blood samples were taken at 0, 0.25, 0.5, 1.0, 2.0, 4.0, and 8.0 hours post dosing and the plasma concentrations were determined by HPLC.

half-life in liver microsomes compared with PD0332991 [2]: shorter in each species
bioavailability [7]: 80%
SMILES: CN1CCN(c2ccc(Nc3ncc4cc5n(c4n3)C3(CCCCC3)CNC5=O)nc2)CC1 [T]
activity against ZR75-1 cells compared with PD0332991 (FIG. 25) [1]: more potent activity against ZR75-1 cells than PD0332991
inhibition of cellular proliferation of ZR75-1 cells (FIGS. 25-28) [1]: significant inhibition of cellular proliferation
Rb phosphorylation in CDK4/6-dependent cell lines (tHS68, WM2664) [3]: blocks Rb phosphorylation in Rb-dependent cell lines by 16 hours post exposure; also recorded: reduced Rb-phosphorylation starting 16 hours after treatment
cell cycle distribution after treatment [4]: causes a loss of the S-phase peak
Rb phosphorylation in CDK4/6-independent cells (A2058) [5]: no effect
cell cycle distribution after treatment [6]: no effect; also recorded: does not cause a loss of the S-phase peak
